Values quoted from earlier work as cited in patent publication US20150265683A1, “Stable aqueous composition comprising human insulin or an analogue or derivative thereof” (WOCKHARDT LIMITED, priority 2012, published 2015).

Conditions: for duration of action: after administration

| Substance | onset of action (begins to work) after administration | duration of action | onset of action (starts working) after administration |
| --- | --- | --- | --- |
| Asp^B28 human insulin [insulin aspart] | 5 to 15 min | 3 to 4 h | – |
| Gly(A21)-Arg(B31)-Arg(B32)-human insulin [Insulin glargine] | – | – | 1 to 2 h |
| Insulin detemir | – | – | 1 to 2 h |
| Isophane Insulin: Intermediate-acting insulin | – | 16 to 24 h | 1 to 3 h |
| Lys^B28 Pro^B29 human insulin [insulin lispro] | 5 to 15 min | 3 to 4 h | – |
| Regular insulin: Short-acting insulin | ≤ 30 min | 5 to 8 h | – |
